Measured values published in ChEMBL document CHEMBL5316328, “Discovery of AXL Degraders with Improved Potencies in Triple-Negative Breast Cancer (TNBC) Cells” (J Med Chem, 2023).
Active and inactive are the calls of the source. The rule behind the calls is not given here.

Experiments:
MDA-MB-231 [1] = assay: Induction of apoptosis in human MDA-MB-231 cells assessed as viable cells at 100 nM incubated for 48 hrs by Annexin V-PE staining based flow cytometric analysis (reference value: 92.59 to 92.71%); format: functional; conditions: read-out: Activity
[2] = target: Eukaryotic peptide chain release factor GTP-binding subunit ERF3A (Homo sapiens) (UniProt P15170); assay: Induction of GSPT1 degradation in human MDA-MB-231 cells at 0.016 to 10 nM incubated for 24 hrs by Western blot analysis; format: cell-based; conditions: dose 0.016-10 nM
Chain of Eukaryotic peptide chain release factor GTP-binding subunit ERF3A (Homo sapiens) (P15170 whole entry): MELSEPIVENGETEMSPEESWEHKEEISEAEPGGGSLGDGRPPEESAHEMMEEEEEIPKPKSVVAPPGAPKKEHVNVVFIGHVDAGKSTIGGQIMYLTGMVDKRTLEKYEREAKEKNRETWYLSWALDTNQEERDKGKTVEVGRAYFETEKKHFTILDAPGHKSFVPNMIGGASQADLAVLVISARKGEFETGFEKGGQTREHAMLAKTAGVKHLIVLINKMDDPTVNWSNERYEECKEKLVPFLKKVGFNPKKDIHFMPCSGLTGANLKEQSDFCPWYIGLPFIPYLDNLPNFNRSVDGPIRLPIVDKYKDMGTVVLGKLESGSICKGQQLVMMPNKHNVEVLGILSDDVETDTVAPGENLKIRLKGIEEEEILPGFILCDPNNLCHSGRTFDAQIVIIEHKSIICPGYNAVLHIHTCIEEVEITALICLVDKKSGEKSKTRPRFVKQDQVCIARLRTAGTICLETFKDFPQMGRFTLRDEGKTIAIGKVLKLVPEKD

MDA-MB-231 [3] = assay: Induction of apoptosis in human MDA-MB-231 cells assessed as upregulation of cleaved PARP expression by Western blot analysis; format: functional, cell-based; conditions: dose 11.1-300 nM
[4] = target: ALK tyrosine kinase receptor (Homo sapiens, UniProt Q9UM73); assay: Inhibition of ALK (unknown origin)
Chain of ALK tyrosine kinase receptor (Q9UM73 whole entry): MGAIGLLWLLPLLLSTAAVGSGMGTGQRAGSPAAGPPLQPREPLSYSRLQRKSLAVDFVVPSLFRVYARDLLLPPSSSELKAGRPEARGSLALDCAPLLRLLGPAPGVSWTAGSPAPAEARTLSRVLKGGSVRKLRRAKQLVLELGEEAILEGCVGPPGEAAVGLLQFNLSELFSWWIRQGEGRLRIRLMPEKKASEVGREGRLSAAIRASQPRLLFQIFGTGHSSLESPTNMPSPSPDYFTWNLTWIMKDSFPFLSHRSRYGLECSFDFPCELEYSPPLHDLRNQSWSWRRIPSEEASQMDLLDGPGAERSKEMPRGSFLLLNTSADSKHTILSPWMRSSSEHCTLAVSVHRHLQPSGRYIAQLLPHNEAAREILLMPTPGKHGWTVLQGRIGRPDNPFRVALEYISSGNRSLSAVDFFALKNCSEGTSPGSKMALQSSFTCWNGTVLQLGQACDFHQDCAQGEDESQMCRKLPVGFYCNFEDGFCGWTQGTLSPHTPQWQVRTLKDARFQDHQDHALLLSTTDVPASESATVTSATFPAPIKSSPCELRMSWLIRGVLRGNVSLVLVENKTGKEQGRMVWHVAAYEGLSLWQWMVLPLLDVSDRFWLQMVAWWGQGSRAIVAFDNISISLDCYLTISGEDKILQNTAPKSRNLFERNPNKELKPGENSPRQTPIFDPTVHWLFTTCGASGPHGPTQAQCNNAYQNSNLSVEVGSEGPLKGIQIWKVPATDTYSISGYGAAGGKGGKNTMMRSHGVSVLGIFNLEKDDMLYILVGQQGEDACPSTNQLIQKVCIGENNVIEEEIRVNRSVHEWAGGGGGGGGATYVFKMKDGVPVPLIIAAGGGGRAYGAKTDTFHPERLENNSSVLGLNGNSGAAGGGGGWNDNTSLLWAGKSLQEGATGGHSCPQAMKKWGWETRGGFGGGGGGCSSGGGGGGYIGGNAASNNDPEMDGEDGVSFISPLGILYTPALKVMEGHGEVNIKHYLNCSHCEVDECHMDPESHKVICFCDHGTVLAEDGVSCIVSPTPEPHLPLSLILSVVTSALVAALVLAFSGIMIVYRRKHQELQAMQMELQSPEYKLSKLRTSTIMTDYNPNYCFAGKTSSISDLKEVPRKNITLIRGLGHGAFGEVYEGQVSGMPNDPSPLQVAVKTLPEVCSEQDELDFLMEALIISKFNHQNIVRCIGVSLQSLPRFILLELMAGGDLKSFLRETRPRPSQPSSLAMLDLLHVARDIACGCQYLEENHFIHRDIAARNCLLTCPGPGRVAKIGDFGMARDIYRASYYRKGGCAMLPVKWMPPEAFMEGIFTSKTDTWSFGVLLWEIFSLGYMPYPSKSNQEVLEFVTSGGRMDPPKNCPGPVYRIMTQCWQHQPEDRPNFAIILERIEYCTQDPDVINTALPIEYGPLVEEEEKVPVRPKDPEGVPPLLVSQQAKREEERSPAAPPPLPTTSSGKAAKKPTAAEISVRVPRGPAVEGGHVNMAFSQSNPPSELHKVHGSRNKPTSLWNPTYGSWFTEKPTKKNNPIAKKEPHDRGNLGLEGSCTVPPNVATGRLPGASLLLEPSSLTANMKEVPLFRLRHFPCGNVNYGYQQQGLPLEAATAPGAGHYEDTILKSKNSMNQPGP

[5] = target: T1, Protein cereblon/Tyrosine-protein kinase receptor UFO (Homo sapiens, UniProt P30530+Q96SW2); assay: PROTAC activity at CRBN/AXL in human MDA-MB-231 cells assessed as induction of AXL degradation at 40 nM preincubated with MG-132 for 2 hrs followed by compound treatment and measured after 24 hrs by Western blot analysis; format: cell-based
Target sequence in this assay (P30530 26-894 limits assumed): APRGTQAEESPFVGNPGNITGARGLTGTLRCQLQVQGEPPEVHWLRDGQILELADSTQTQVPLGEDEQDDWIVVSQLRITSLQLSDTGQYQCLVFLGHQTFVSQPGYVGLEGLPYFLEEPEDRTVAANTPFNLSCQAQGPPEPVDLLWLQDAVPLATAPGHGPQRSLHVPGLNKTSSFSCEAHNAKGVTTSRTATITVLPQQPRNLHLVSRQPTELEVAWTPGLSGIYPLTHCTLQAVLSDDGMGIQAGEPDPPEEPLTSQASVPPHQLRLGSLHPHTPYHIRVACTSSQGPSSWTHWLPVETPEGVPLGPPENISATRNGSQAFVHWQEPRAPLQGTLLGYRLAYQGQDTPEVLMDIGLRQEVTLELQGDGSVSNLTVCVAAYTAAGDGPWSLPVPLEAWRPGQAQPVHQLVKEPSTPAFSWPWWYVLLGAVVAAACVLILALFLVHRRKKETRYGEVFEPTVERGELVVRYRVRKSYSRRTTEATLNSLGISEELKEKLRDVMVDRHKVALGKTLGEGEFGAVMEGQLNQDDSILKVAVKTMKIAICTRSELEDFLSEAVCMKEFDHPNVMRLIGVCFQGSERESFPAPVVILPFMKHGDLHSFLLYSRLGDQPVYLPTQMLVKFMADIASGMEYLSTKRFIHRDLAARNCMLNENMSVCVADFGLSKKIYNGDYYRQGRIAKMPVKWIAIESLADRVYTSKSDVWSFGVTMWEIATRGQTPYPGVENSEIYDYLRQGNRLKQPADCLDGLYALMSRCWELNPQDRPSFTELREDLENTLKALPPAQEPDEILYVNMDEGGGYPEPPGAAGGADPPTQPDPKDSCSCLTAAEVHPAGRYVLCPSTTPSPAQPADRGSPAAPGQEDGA
Target sequence in this assay (Q96SW2 whole entry partner): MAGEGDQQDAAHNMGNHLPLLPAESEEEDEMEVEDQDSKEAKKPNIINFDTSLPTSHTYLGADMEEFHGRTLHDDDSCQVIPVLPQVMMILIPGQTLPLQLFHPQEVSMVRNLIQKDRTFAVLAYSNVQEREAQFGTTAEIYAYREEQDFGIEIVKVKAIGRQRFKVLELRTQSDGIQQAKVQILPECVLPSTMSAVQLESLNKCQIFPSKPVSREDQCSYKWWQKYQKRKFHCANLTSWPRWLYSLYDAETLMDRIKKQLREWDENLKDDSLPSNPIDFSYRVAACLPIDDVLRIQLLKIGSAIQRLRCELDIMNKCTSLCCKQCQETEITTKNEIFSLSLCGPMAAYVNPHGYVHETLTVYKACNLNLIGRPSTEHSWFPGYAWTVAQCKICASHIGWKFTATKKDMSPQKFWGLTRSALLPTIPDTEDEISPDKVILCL

[6] = target: T1, Protein cereblon/Tyrosine-protein kinase receptor UFO; assay: PROTAC activity at CRBN/AXL in human MDA-MB-231 cells expressing AXL assessed as induction of AXL degradation at 0.016 to 10 nM incubated for 24 hrs by Western blot analysis; format: cell-based; conditions: dose 0.016-10 nM
Target sequence in this assay (P30530 26-894 limits assumed): as the sequence (P30530 26-894 limits assumed) above
Target sequence in this assay (Q96SW2 whole entry partner): as the sequence (Q96SW2 whole entry partner) above

MDA-MB-231 [7] = assay: Induction of apoptosis in human MDA-MB-231 cells assessed as necrotic cells at 100 nM incubated for 48 hrs by Annexin V-PE staining based flow cytometric analysis (reference value: 2.64 to 3.23%); format: functional
[8] = target: T1, Protein cereblon/Tyrosine-protein kinase receptor UFO; assay: PROTAC activity at CRBN/AXL in human MDA-MB-231 cells assessed as induction of AXL degradation incubated upto 20 hrs in the presence of cycloheximide by Western blot analysis; format: cell-based
Target sequence in this assay (P30530 26-894 limits assumed): as the sequence (P30530 26-894 limits assumed) above
Target sequence in this assay (Q96SW2 whole entry partner): as the sequence (Q96SW2 whole entry partner) above

MDA-MB-231 [9] = assay: Induction of apoptosis in human MDA-MB-231 cells assessed as necrotic cells at 33.3 nM incubated for 48 hrs by Annexin V-PE staining based flow cytometric analysis (reference value: 2.64 to 3.23%); format: functional
MDA-MB-231 [10] = assay: Induction of cell cycle arrest in human MDA-MB-231 cells assessed as S phase cells at 100 nM incubated for 24 hrs by PI staining based flow cytometric analysis (reference value: 9.64 to 10.79%); format: functional
MDA-MB-231 [11] = assay: Antitumor activity against human MDA-MB-231 cells xenografted in Balb/c nude mouse assessed as tumor growth inhibition at 10 mg/kg, ip administered for 22 days and measured 24 hrs post last dose relative to control; format: functional; conditions: MDA-MB-231, 552 h, time 23 day, read-out: TGI
MDA-MB-231 [12] = assay: Induction of cell cycle arrest in human MDA-MB-231 cells assessed as accumulation of cell at G2/M phase at 300 nM incubated for 24 hrs by PI staining based flow cytometric analysis (reference value: 24.34 to 24.44%); format: functional
[13] = target: T1, Protein cereblon/Tyrosine-protein kinase receptor UFO; assay: PROTAC activity at CRBN/AXL in human MDA-MB-231 cells assessed as induction of AXL degradation at 40 nM by Western blot analysis; format: cell-based; conditions: time <= 72.0 hrs, TDE = time-dependent effect
Target sequence in this assay (P30530 26-894 limits assumed): as the sequence (P30530 26-894 limits assumed) above
Target sequence in this assay (Q96SW2 whole entry partner): as the sequence (Q96SW2 whole entry partner) above

[14] = target: T1, Protein cereblon/Tyrosine-protein kinase receptor UFO; assay: PROTAC activity at CRBN/AXL in human MDA-MB-231 cells assessed as induction of AXL degradation at 40 nM incubated for 18 to 24 hrs by Western blot analysis; format: cell-based; conditions: time 18-24 hrs
Target sequence in this assay (P30530 26-894 limits assumed): as the sequence (P30530 26-894 limits assumed) above
Target sequence in this assay (Q96SW2 whole entry partner): as the sequence (Q96SW2 whole entry partner) above

MDA-MB-231 [15] = assay: Induction of cell cycle arrest in human MDA-MB-231 cells assessed as accumulation of cell at G2/M phase at 33.3 nM incubated for 24 hrs by PI staining based flow cytometric analysis (reference value: 24.34 to 24.44%); format: functional
[16] = target: Casein kinase I isoform alpha (Homo sapiens) (UniProt P48729); assay: Induction of CK1alpha degradation in human MDA-MB-231 cells at 10 uM incubated for 24 hrs by Western blot analysis; format: cell-based
Chain of Casein kinase I isoform alpha (Homo sapiens) (P48729 2-337 limits assumed): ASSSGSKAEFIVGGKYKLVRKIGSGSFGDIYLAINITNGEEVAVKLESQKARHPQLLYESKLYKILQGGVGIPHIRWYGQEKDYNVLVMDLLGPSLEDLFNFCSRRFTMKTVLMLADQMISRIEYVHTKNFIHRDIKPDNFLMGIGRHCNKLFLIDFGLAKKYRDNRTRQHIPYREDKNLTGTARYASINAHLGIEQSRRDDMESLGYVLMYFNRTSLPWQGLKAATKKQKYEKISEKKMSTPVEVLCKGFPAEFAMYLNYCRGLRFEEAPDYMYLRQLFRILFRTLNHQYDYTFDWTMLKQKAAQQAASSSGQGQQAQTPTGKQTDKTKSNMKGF

MDA-MB-231 [17] = assay: Induction of apoptosis in human MDA-MB-231 cells assessed as late apoptotic cells at 33.3 nM incubated for 48 hrs by Annexin V-PE staining based flow cytometric analysis (reference value: 0.32 to 0.82%); format: functional
Mus musculus = assay: In vivo PROTAC activity at CRBN/AXL in human MDA-MB-231 cells xenografted Balb/c mouse assessed as degradation of AXL in tumor at 10 to 20 mg/kg, ip administered for 22 days and measured 24 hrs post last dose by Western blot analysis; format: functional, organism-based; conditions: dose 10-20 mg/kg, time 23.0 day
[18] = target: T1, Protein cereblon/Tyrosine-protein kinase receptor UFO; assay: PROTAC activity at CRBN/AXL in human MDA-MB-231 cells assessed as induction of AXL degradation incubated for 24 hrs by immunoblot analysis; format: cell-based
MDA-MB-231 [19] = assay: Antiproliferative activity against human MDA-MB-231 cells assessed as reduction in cell viability preincubated with N-(4-((6,7-dimethoxyquinazolin-4-yl)oxy)-3-fluorophenyl)-6-ethyl-1,2-dimethyl-4-oxo-1,4-dihydroquinoline-3-carboxamide for 6 hrs followed by compound treatment and measured after 24 hrs by CCK8 assay; format: functional, cell-based
MDA-MB-231 [20] = assay: Induction of cell cycle arrest in human MDA-MB-231 cells assessed as S phase cells at 300 nM incubated for 24 hrs by PI staining based flow cytometric analysis (reference value: 9.64 to 10.79%); format: functional
MDA-MB-231 [21] = assay: Induction of apoptosis in human MDA-MB-231 cells assessed as early apoptotic cells at 300 nM incubated for 48 hrs by Annexin V-PE staining based flow cytometric analysis (reference value: 3.95 to 3.74%); format: functional
[22] = target: T1, Protein cereblon/Tyrosine-protein kinase receptor UFO; assay: PROTAC activity at CRBN/AXL in human MDA-MB-231 cells assessed as induction of AXL degradation by measuring maximal efficacy at 0.08 uM incubated for 24 hrs by Western blot analysis relative to control; format: cell-based
Target sequence in this assay (P30530 26-894 limits assumed): as the sequence (P30530 26-894 limits assumed) above
Target sequence in this assay (Q96SW2 whole entry partner): as the sequence (Q96SW2 whole entry partner) above

[23] = target: T1, Protein cereblon/Tyrosine-protein kinase receptor UFO; assay: PROTAC activity at CRBN/AXL in human MDA-MB-231 cells assessed as induction of AXL degradation by measuring half-life of AXL incubated upto 20 hrs in the presence of cycloheximide by Western blot analysis; format: cell-based
MDA-MB-231 [24] = assay: Induction of apoptosis in human MDA-MB-231 cells assessed as late apoptotic cells at 300 nM incubated for 48 hrs by Annexin V-PE staining based flow cytometric analysis (reference value: 0.32 to 0.82%); format: functional
MDA-MB-231 [25] = assay: Antitumor activity against human MDA-MB-231 cells xenografted in Balb/c nude mouse assessed as tumor growth inhibition at 20 mg/kg, ip administered for 22 days and measured 24 hrs post last dose relative to control; format: functional; conditions: MDA-MB-231, 552 h, time 23 day, read-out: TGI
MDA-MB-231 [26] = assay: Induction of cell cycle arrest in human MDA-MB-231 cells assessed as G0/G1 phase cells at 100 nM incubated for 24 hrs by PI staining based flow cytometric analysis (reference value: 63.32 to 64.94%); format: functional
MDA-MB-231 [27] = assay: Inhibition of cell invasion in human MDA-MB-231 cells at 3.7 to 100 nM incubated for 18 hrs by transwell assay; format: functional, cell-based; conditions: dose 3.7-100 nM
[28] = Toxicity in Balb/c nude mouse xenografted with human MDA-MB-231 cells assessed as effect on body weight at 10 to 20 mg/kg, ip administered for 22 days and measured 24 hrs post last dose; format: organism-based; conditions: in vivo, 552 h, dose 10-20 mg/kg, time 23 day

Question: Which results are given for `CCc1ccc2c(c1)c(=O)c(C(=O)Nc1ccc(Oc3ncnc4cc(OCCCCCC(=O)Nc5ccc6c(c5)CN(C5CCC(=O)NC5=O)C6=O)c(OC)cc34)c(F)c1)c(C)n2C` (stereo not given)?
Answer: viability at 0.1 µM (MDA-MB-231 [1]): 83.4%; Activity [2]: Active; Activity (MDA-MB-231 [3]): Dose-Dependent Effect; IC50 [4]: 4.94 nM; Activity [5]: inactive; Activity [6]: Active; Activity (MDA-MB-231 [7]): 1.17%; Activity [8]: Active; Activity (MDA-MB-231 [9]): 1.2%; Activity (MDA-MB-231 [10]): 15.78%; inhibition in vivo at 10 mg/kg (MDA-MB-231 [11]): 40.9%; Activity (MDA-MB-231 [12]): 29.55%; Activity [13]: Tde; Activity [14]: Active; Activity (MDA-MB-231 [15]): 22.85%; Activity [16]: inactive; Activity (MDA-MB-231 [17]): 0.56%; Activity (Mus musculus): Active; Activity [18]: Dose-Dependent Effect; EC50 [18]: 5 nM; Activity (MDA-MB-231 [19]): inactive; Activity (MDA-MB-231 [20]): 16.29%; Activity (MDA-MB-231 [21]): 20.49%; Emax [22]: 80.5%; T1/2 [23]: 8 h; Activity (MDA-MB-231 [24]): 0.79%; inhibition in vivo at 20 mg/kg (MDA-MB-231 [25]): 62.5%; Activity (MDA-MB-231 [26]): 46.81%; inhibition (MDA-MB-231 [27]): Active; Activity [28]: Non-Toxic
